Assays:
HT29SN-38 cells = assay: Cellular dye efflux assay (Hoechst 33342), resistant cells; format: cell-based, human; settings: SCO-101 20 µM, Ko-143 1 µM, PSC833 1 µM
Description: Twenty-four hours before the experiments, cells were seeded into 96-well Nunclon^TM plates at a density of 6000 (HT29), 7000 (PANC-1) or 8000 (LoVo) cells/well. The following day, cells were treated in triplicate with the relevant drugs at the indicated concentrations for 1 h. Next, 5 μg/mL Hoechst 33342 was added to the wells, and plates incubated at 37 °C for 30 min^−1 h. Cells were washed with cold PBS, treatments re-added and plates re-incubated at 37 °C for 30 min to 1 h. Plates were analyzed using a Celigo® (Nexcelom Bioscience, Lawrence, MA, USA) imaging cytometer. Data are expressed as percentages of fluorescence intensity, calculated through the following formula: % fluorescence intensity=Mean fluorescence intensity of sample/Mean fluorescence intensity of parental control×100
Fluorescent images were captured with an Olympus® IX71/TH4-200 microscope equipped with an Olympus® DP72 camera (Shinjuku, Tokyo, Japan), and cells were seeded at a 1.5 × 10^5 cells/well density and treated as described above.

PANC-1MX100 cells = assay: Cell viability assay, mitoxantrone-resistant PANC-1; format: cell-based, human; settings: SCO-101 20 µM, 72 h
Description: Cells were seeded at a density of 0.2–1 × 10^4 cells/well into 96-well plates. One day after seeding, treatments were performed in triplicate for 72 h, or as otherwise indicated in the relevant panel/figure legend and kept at 37 °C/5% CO2. Growth medium alone (“untreated” cells) or DMSO was used as a control.
For MTT assays, media were replaced at the final timepoint with 100 μL of 1:10 MTT reagent (0.5 mg/mL in PBS) diluted in growth medium, and plates were incubated for 3 h. A total of 100 μL/well of stop buffer (50 g Sodium Dodecyl Sulfate, 245 mL ddH2O, 5 mL 1N HCl) was added and plates incubated for 24 h to let colored formazan crystals develop. Optical densities (ODs) were measured with a PowerWave^TM Microplate spectrophotometer (BioTek, Winooski, VT, USA) at 570 nm and 670 nm (background).
Background values were subtracted prior to further analysis. The percentage of cell viability was expressed as relative values versus untreated cells as determined by the various assays. EC50/IC50 values were calculated using GraphPad Prism (v10.4.1) and the in-built non-linear regression [log (inhibitor) vs. response—variable slope (four parameters)] calculation. For determination of synergy scores, the online tool SynergyFinder+ (https://synergyfinder.org access date 15 February 2025) was employed following 4 × 4- or 6 × 6-matrix dose-escalation cell viability experiments. […]

ABCG2 = target: T1, ABCG2 (Homo sapiens, UniProt Q9UNQ0); assay: Efflux transporter inhibition, vesicular uptake into inside-out membrane vesicles (ABCG2); format: biochemical; design: purchased SOLVO biotechnology, Budapest, Hungary
T1 sequence (Q9UNQ0 1-655): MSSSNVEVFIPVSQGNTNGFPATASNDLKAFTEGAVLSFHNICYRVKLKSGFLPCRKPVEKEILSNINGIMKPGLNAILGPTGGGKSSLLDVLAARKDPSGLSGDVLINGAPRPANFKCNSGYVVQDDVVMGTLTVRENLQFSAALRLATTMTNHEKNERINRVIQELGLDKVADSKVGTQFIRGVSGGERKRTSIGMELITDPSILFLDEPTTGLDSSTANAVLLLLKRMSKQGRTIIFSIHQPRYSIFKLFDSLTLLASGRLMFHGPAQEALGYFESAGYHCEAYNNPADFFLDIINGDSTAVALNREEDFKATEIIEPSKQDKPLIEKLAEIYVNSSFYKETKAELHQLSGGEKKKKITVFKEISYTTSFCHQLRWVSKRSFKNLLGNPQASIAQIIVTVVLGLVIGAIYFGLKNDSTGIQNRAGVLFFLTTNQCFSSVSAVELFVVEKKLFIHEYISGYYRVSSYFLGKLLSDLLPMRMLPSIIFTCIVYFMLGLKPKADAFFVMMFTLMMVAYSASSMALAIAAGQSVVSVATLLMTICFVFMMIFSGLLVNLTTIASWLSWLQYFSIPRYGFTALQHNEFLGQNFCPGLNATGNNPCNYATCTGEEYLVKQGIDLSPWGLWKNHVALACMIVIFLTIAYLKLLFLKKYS
Description: Efflux transporter inhibition was evaluated by measuring vesicular uptake into inside-out membrane vesicles (SOLVO biotechnology, Budapest, Hungary) expressing a single human ABC transporter (0.67 mg/mL ABCB1; 0.67 mg/mL ABCC2; 0.33 mg/mL ABCG2 membrane protein) of a probe substrate (1 μM N-methyl-quinidine for ABCB1; 100 μM 5(6)-carboxy-2′,7′-dichlorofluorescein for ABCC2; 1 μM Eestrone-3-sulfate for ABCG2) in the presence of SCO-101 with and without ATP (4 mM) in 96-well plate format. Control solvent and control inhibitors (4–60 μM verapamil for […]; 1–15 μM sulfasalazine for ABCG2; 5.5–150 μM benzbromarone for ABCC2) were incubated in parallel. Vesicular uptake was conducted at 37 °C in incubation buffer (10 mM Tris-HCl, pH 7.4, 10 mM MgCl2, 250 mM sucrose) and terminated after 1 min (ABCB1 and ABCG2) or 5 min (ABCC2) by adding ice-cold washing buffer (10 mM Tris-HCl, pH 7.4, 100 mM NaCl, 250 mM sucrose). […] Probe quantification was conducted using LC-MS/MS peak areas (solvent control with ATP − AMP = 100%). […] The remaining transporter activity % was calculated according to the formula below, and fitting was performed using GraphPad Prism: A%=AATP,sample−AAMP,sample/AATP,solvent−AAMP,solvent

- IC50 (ABCG2; ABCG2 inside-out vesicles, 1 μM estrone-3-sulfate, SCO-101 0.001–300 µM, read-out: IC50, ATP-dependent vesicular uptake of probe substrate (remaining ABCG2 activity)): 160 nM
- IC50 for MDR1/ABCB1 and MRP2/ABCC2 relative to ABCG2 (ABCG2; selectivity for ABCG2): > 100 fold
Structure (SMILES): O=C(Nc1cc(C(F)(F)F)cc(C(F)(F)F)c1)Nc1ccc(Br)cc1-c1nnn[nH]1 [SCO-101, N-[4-Bromo-2-(1H-1,2,3,4-tetrazol-5-yl)phenyl]-N′-[3,5-bis(trifluoromethyl)phenyl]urea]
- H33342 dye accumulation (HT29SN-38 cells): restored
- cell viability, SCO-101 combined with mitoxantrone or SN-38 (PANC-1MX100 cells): re-sensitized
